Where “and” joins values, the source holds several entries; their conditions need not be identical. Equal values may be shown once.
Key:
[1] = tested on: HIV-infected patients under HAART regimen and presenting lipodystrophy syndrome; experiment: Example 1: 3 months' administration to HIV-infected patients under HAART with lipodystrophy syndrome; type: in vivo, human; set-up: LDL / VLDL / COL. / TG / HDL: unit not given here; conditions: 4 grams/day
Protocol: Four HIV-infected patients under HAART regimen and presenting lipodystrophy syndrome were administered 4 grams/day of a tuna oil with a DHA content of 70%. After three months' administration of DHA to said patients, the following discoveries were made, even taking account of the short period of administration: • 1. […] Mean reduction of 56% in the plasma triglycerides number. • 3. Mean reduction of 25% in the total plasma cholesterol number. • 4. Mean increase of 9% in the plasma HDL cholesterol number. • 5. Mean reduction of 18% in the plasma LDL cholesterol number.

[2] = tested on: patients treated with DHA (lipodystrophy); experiment: Example 2: 300-day monitoring of the four patients treated with DHA; type: in vivo, human; set-up: COL. / VLDL / TG / HDL / LDL: unit not given here; conditions: for COL. / HDL / LDL / TG / VLDL: individual patients 1-4
From the text: From the four patients treated with DHA at elevated dosages (1.5 g/day), all of them have been monitored for 300 days and, although notable fluctuations are observed, especially regarding to the triglicerids (see Table 2), after 300 days of monitoring, the reduction's mean in the number of triglycerids with respect to the basal level is 66% and for the cholesterol is 28.0%.
All patients have improved their fat redistribution, from the point of view subjective and according to the skill's criterion.

[3] = 3 months, mean of four patients
[4] = after 3 months of treatment, individual patients 1-4
[5] = 1.5 g/day, after 300 days of monitoring, four patients

For CC/C=C\C/C=C\C/C=C\C/C=C\C/C=C\C/C=C\CCC(=O)O [DHA, docosahexaenoic acid], the “Mean increase in the plasma HDL cholesterol number” value [1, 3] was 9%, the “Mean reduction in the plasma LDL cholesterol number” value [1, 3] was 18% and the “Mean reduction in the plasma triglycerides number” value [1, 3] was 56%. The “Mean reduction in the total plasma cholesterol number” value [1, 3] was 25%, the COL. [1, 4] was 5.46 and 9.48 and 3.82 and 9.9 and the HDL [1, 4] was 1.57 and 0.91 and 1.05 and 0.98. For the same compound, the LDL [1, 4] was 3.43 and 3.35 and 1.97 and 6.67, the TG [1, 4] was 1 and 10.66 and 1.73 and 3.41 and the VLDL [1, 4] was 0.46 and 3.74 and 0.8 and 1.82. The “drop of HDL cholesterol” value [2, 5] was 11.6%, the “reduction's mean in the cholesterol with respect to the basal level” value [2, 5] was 28.0% and the “reduction's mean in the number of triglycerids with respect to the basal level” value [2, 5] was 66%. The COL. ([2]; 15 days of treatment) was 6.37 and 9.74 and 3.92 and 8.73, the HDL ([2]; 15 days of treatment) was 1.7 and 0.98 and 1.05 and 1.03 and the LDL ([2]; 15 days of treatment) was 4.14 and 6.07 and 1.86 and 5.35. The TG ([2]; 15 days of treatment) was 1.16 and 5.98 and 3.11 and 5.18, the VLDL ([2]; 15 days of treatment) was 0.53 and 2.61 and 1.01 and 2.35 and the COL. ([2]; 30 days of treatment) was 6.16 and 8.4 and 4.07 and 8.5. For the same compound, the HDL ([2]; 30 days of treatment) was 1.79 and 0.86 and 1.06 and 1.16, the LDL ([2]; 30 days of treatment) was 3.7 and 4.3 and 2.0 and 5.0 and the TG ([2]; 30 days of treatment) was 1.35 and 6.9 and 3.09 and 5.74. The VLDL ([2]; 30 days of treatment) was 0.62 and 3.18 and 0.97 and 2.26, the COL. ([2]; 60 days of treatment) was 5.46 and 9.48 and 3.82 and 9.9 and the HDL ([2]; 60 days of treatment) was 1.57 and 0.91 and 1.05 and 0.98. For the same compound, the LDL ([2]; 60 days of treatment) was 3.43 and 3.35 and 1.97 and 6.67, the TG ([2]; 60 days of treatment) was 1 and 10.66 and 1.73 and 3.41 and the VLDL ([2]; 60 days of treatment) was 0.46 and 3.74 and 0.8 and 1.82. The COL. ([2]; 120 days of treatment) was 5.49 and 8.24 and 3.47 and 13.63, the HDL ([2]; 120 days of treatment) was 1.56 and 1.08 and 1.16 and 0.7 and the LDL ([2]; 120 days of treatment) was 3.26 and 4.6 and 1.61 and 1.46. For the same compound, the TG ([2]; 120 days of treatment) was 1.45 and 6.36 and 1.51 and 31.7, the VLDL ([2]; 120 days of treatment) was 0.67 and 2.56 and 0.7 and 9.67 and the COL. ([2]; 180 days of treatment) was 6.15 and 9.64 and 3.76 and 13.21. For the same compound, the HDL ([2]; 180 days of treatment) was 1.56 and 1.04 and 0.94 and 1.48, the LDL ([2]; 180 days of treatment) was 3.38 and 2.3 and 1.5 and 2.09 and the TG ([2]; 180 days of treatment) was 2.63 and 15.75 and 2.87 and 16.37. For the same compound, the VLDL ([2]; 180 days of treatment) was 1.21 and 4.38 and 132 and 3.97, the COL. ([2]; 240 days of treatment) was 5.7 and 8.1 and 4.04 and 5.33 and the HDL ([2]; 240 days of treatment) was 1.67 and 0.98 and 1.09 and 1.17. For the same compound, the LDL ([2]; 240 days of treatment) was 3.3 and 4.93 and 2.1 and 3.16, the TG ([2]; 240 days of treatment) was 1.59 and 5.36 and 1.85 and 2.18 and the VLDL ([2]; 240 days of treatment) was 0.73 and 2.12 and 0.85 and 1. For the same compound, the COL. ([2]; 300 days of treatment) was 6.01 and 9.3 and 4.34 and 4.27, the HDL ([2]; 300 days of treatment) was 1.23 and 1.08 and 0.89 and 1.22 and the LDL ([2]; 300 days of treatment) was 4.06 and 5.31 and 2.7 and 2.42. The TG ([2]; 300 days of treatment) was 1.57 and 7.21 and 1.62 and 1.36 and the VLDL ([2]; 300 days of treatment) was 0.72 and 2.92 and 0.75 and 0.63.

Source: patent publication US8202906B2, “Use of docosahexanoic acid as active substance for the treatment of lipodystrophy” (Proyecto Empresarial Brudy, S.L., priority 2002, dated 2012)
